Measured values taken from patent US20240092739A1, “COMPOUNDS AND METHODS OF USE” (Ferro Therapeutics, Inc, priority 2020, published 2024).
Where two headings read alike, the source gives them in different places.

What was measured:
[1] = tested on: 786-O (renal cell carcinoma) cells; experiment: Cell proliferation (Alamar Blue) assay, 786-O cells; type: cell-based; conditions: Homo sapiens, 786-0, 786-O cells, Alamar Blue
Protocol: (§1) Cell viability assay was performed to assess the potency of the compounds in human cancer cell lines 786-0 (renal cell carcinoma) and SJSA-1 (osteosarcoma). Additional cell lines, such as pancreatic cancer cell lines (Panc 02.13, BxPC-3, Panc 12, Panc 02.03, Panc 6.03, PSN-1, HPAC, and Capan-1), prostate cancer cell lines (PC-3, DU145, […], NCI-H660, 1PH1 LNCaP, BM-1604, and MDA PCa 2b), etc., can be tested in a similar method.
(§2) Cells (SJSA-1, 786-0 and A431) were seeded (5000 cells/100 μL/well) in 96-well tissue culture plate and incubated at 37° C./500 CO2 for 16-24 hours. The cells were then treated with compounds (25 μL of 5×). The compound concentrations were 10-0.0005 μM prepared in 3-fold serial dilutions with final DMSO concentration of 1%. The plates were then incubated for 24 h at 37° C./[…] in a moist environment. Then Alamar Blue™ reagent (final concentration 1×-12.5 μL) was added to each well and incubated for 1.5 hours at 37° C./500 CO2. The plates were read on fluorescence reader at 540 nm excitation and 590 nm emission wavelengths. The IC50 values were subsequently determined using a sigmoidal dose-response curve (variable slope) in GraphPad Prism® 5 software. Tables A-3 and B-11 show cell proliferation data for exemplary compounds as described herein.

[2] = tested on: A431 cells; experiment: Cell proliferation (Alamar Blue) assay, A431 cells; type: cell-based; conditions: Homo sapiens, A-431, A431 cells, Alamar Blue
Protocol: as §1, §2

[3] = tested on: SJSA-1 (osteosarcoma) cells; experiment: Cell proliferation (Alamar Blue) assay, SJSA-1 cells; type: cell-based; conditions: Homo sapiens, 24 h compound treatment
Protocol: as §1, §2

[4] = tested on: 786-O cells + Ferrastatin-1; experiment: GPX4 inhibition assay: cell proliferation (Alamar Blue) in 786-O cells with ferrostatin rescue; type: cell-based, human
Protocol: as §2
Studies have shown that lipophilic antioxidants, such as ferrostatin, can rescue cells from GPX4 inhibition-induced ferroptosis. For instance, mesenchymal state GPX4-knockout cells can survive in the presence of ferrostatin, however, when the supply of ferrostatin is terminated, these cells undergo ferroptosis (see, e.g., Viswanathan et al., Nature 547:453-7, 2017). […] Accordingly, the ability of a molecule to induce ferroptotic cancer cell death, and that such ability is admonished by the addition of ferrostatin, is clear indication that the molecule is an GPX4 inhibitor. Cell proliferation data for exemplary compounds with and without ferrostatin can be seen in Table A-3.

[5] = 24 h compound treatment, read-out: IC50 (μM) 786-O
[6] = 24 h compound treatment, read-out: IC50 (μM) A431
[7] = 24 h compound incubation, read-out: Cell proliferation IC50 (μM) 786-O
[8] = 786-O cells with Ferrastatin-1 (rescue), read-out: Cell proliferation IC50 (μM) 786-O + Ferrastatin-1
[9] = 24 h compound incubation, read-out: Cell proliferation IC50 (μM) A431
[10] = 786-O cells in presence of Ferrastatin-1 (rescue), read-out: IC50 (μM) 786-O + Ferrastatin-1

Structure (SMILES) | IC50 [1, 5] | IC50 [2, 6] | IC50 [3] | IC50 [4, 10] | IC50 [1, 7] | IC50 [4, 8] | IC50 [2, 9]
C#CC(=O)N1[C@@H](CCCC)Cc2cc(OC)ccc2[C@@H]1c1ccc(NC(=O)C2CCC2)cc1 [Compound B-20, N-{4-[(1S,3S)-3-butyl-6-methoxy-2-(prop-2-ynoyl)-1,2,3,4-tetrahydroisoquinolin-1-yl]phenyl}cyclobutanecarboxamide] | 0.02 µM | 6.14 µM | 0.021 µM |  |  |  | 
C#CC(=O)N1[C@@H](CCCC)Cc2cc(OC)ccc2[C@H]1c1ccc(NC(=O)C2CCC2)cc1 [Compound B-19, N-(4-((1R,3S)-3-butyl-6-methoxy-2-propioloyl-1,2,3,4-tetrahydroisoquinolin-1-yl)phenyl) cyclobutane carboxamide] | 0.569 µM | 6.3 µM | 0.52 µM |  |  |  | 
CCCC[C@H]1Cc2cc(OC)ccc2[C@H](C23CC(F)(C2)C3)N1C(=O)C#C[Si](C)(C)C [Compound A-9, 1-((1S,3S)-3-butyl-1-(3-fluorobicyclo[1.1.1]pentan-1-yl)-6-methoxy-3,4-dihydroisoquinolin-2(1H)-yl)-3-(trimethylsilyl)prop-2-yn-1-one] |  |  |  |  | 0.18 µM | > 1 µM | > 1 µM
CCCC[C@H]1Cc2cc(C(F)(F)F)ccc2[C@H](c2ccc(NC34CC5CC(CC(C5)C3)C4)cc2)N1C(=O)C#C[Si](C)(C)C [Compound A-28] |  |  |  |  | 0.015 µM | 3.58 µM | 2.94 µM

Second part, led by results:

IC50 [1, 5] | IC50 [2, 6] | IC50 [3] | IC50 [4, 10] | Structure (SMILES) | IC50 [1, 7] | IC50 [4, 8] | IC50 [2, 9]
0.037 µM |  | 0.2 µM |  | C#CC(=O)N1[C@@H](CCCC)Cc2cc(OC)ccc2[C@@H]1c1ccc(NC(=O)c2ccnc(C)c2)cc1 [Compound B-49, N-(4-((1S,3S)-3-butyl-6-methoxy-2-propioloyl-1,2,3,4-tetrahydroisoquinolin-1-yl)phenyl)-2-methylisonicotinamide] |  |  | 
0.041 µM | 9.96 µM | 0.05 µM |  | C#CC(=O)N1[C@@H](CCCC)Cc2cc(OC)ccc2[C@@H]1c1ccc(NC2CCC2)cc1 [Compound B-22, 1-((1S,3S)-3-butyl-1-(4-(cyclobutylamino)phenyl)-6-methoxy-3,4-dihydroisoquinolin-2(1H)-yl)prop-2-yn-1-one] |  |  | 
0.015 µM | 1.79 µM |  | 2.47 µM | C#CC(=O)N1[C@@H](CCCC)Cc2c(OC)cccc2[C@@H]1c1ccc(NC23CC4CC(CC(C4)C2)C3)cc1 [Compound B-69] |  |  | 
0.042 µM | 2.35 µM |  | 2.61 µM | C#CC(=O)N1[C@@H](CCCC)Cc2cc(OC)ncc2[C@H]1c1ccc(NC23CC4CC(CC(C4)C2)C3)cc1 [Compound B-68] |  |  | 
